# Source: patent publication US11000033B2, “Ketone or oxime compound, and herbicide” (NISSAN CHEMICAL CORPORATION, priority 2014, dated 2021)
# Key:
# Format in all cases: in vivo
# [1] = test system: Echinochloa oryzacola Vasing.; test: Test Example 1: herbicidal activity, application before weed generation in submerged conditions (symbol A); conditions: application herbicide amount 320 g/ha
# Method in brief: (§1)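 0–5 visual score, 3 wk post-application. Submerged pots, alluvial soil, water 4 cm; seeds sown mixed, rice at 2.5 leaves transplanted. Emulsion diluted to predetermined dose, applied to water surface at sowing. 25–30 °C greenhouse.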
# [2] = test system: Scirpus juncoides; test: Test Example 1: herbicidal activity, application before weed generation in submerged conditions (symbol B); conditions: application herbicide amount 320 g/ha
# Method in brief: as §1
# [3] = test system: Monochoria vaginalis; test: Test Example 1: herbicidal activity, application before weed generation in submerged conditions (symbol C); conditions: application herbicide amount 320 g/ha
# Method in brief: as §1
# [4] = test system: transplanted rice plant; test: Test Example 1: effect on crop, application before weed generation in submerged conditions (symbol a); conditions: application herbicide amount 320 g/ha
# Method in brief: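 Alluvial soil pots flooded to 4 cm water, sown with Echinochloa oryzacola, Scirpus juncoides and Monochoria vaginalis, then transplanted with 2.5 leaf stage rice seedlings; pre-emergence application. Greenhouse 25° C. to 30° C.; scored 0–5 by herbicidal ratio 3 weeks after application.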
# [5] = test system: Scirpus juncoides; test: Test Example 2: herbicidal activity, application during weed generation in submerged conditions (symbol B); conditions: Table 23; application herbicide amount 320 g/ha; grade 0-5 by criteria of Test Example 1
# Method in brief: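 Alluvial soil in pots was flooded to a 4 cm water depth and sown with a mix of the three weed species, then grown in a greenhouse at 25° C. to 30° C. At the one- to two-leaf stage, an emulsifiable formulation diluted in water to a set dose was applied to the water surface. Effects were scored visually 3 weeks later.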
# [6] = test system: Setaria viridis; test: Test Example 4: herbicidal effect by soil treatment (symbol G); conditions: application herbicide amount 320 g/ha
# Method in brief: (§2)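 Seeds were sown in sterilized diluvial soil, covered with about 1.5 cm of soil, and the soil surface was sprayed with a water-diluted emulsion of the compound at a predetermined rate. Plants grew in a greenhouse at 25° C. to 30° C.; effects were scored visually 3 weeks after application.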
# [7] = test system: Alopecurus myosuroides; test: Test Example 4: herbicidal effect by soil treatment (symbol J); conditions: application herbicide amount 320 g/ha
# Method in brief: as §2
# [8] = test system: Chenopodium album; test: Test Example 4: herbicidal effect by soil treatment (symbol O); conditions: application herbicide amount 320 g/ha
# Method in brief: as §2
# [9] = test system: beet; test: Test Example 4: effect on crop by soil treatment (symbol f); conditions: application herbicide amount 320 g/ha
# Method in brief: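 Steps: fill box with sterilized diluvial soil; sow seed spot-like; cover with ~1.5 cm soil; grow in greenhouse (25° C. to 30° C.).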
# [10] = test system: Echinochloa crus-galli var. crus-galli; test: Test Example 5: herbicidal effect by foliage application, plastic box (symbol H); conditions: 320 g/ha, 3 weeks after application
# Method in brief: (§3)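 Visual herbicidal score, taken three weeks post-application, of seedlings sprayed on the foliage with water-diluted emulsion at a predetermined amount; plants were 14 days old, greenhouse-raised at 25° C. to 30° C.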
# [11] = test system: Alopecurus myosuroides; test: Test Example 5: herbicidal effect by foliage application, plastic box (symbol J); conditions: 320 g/ha, 3 weeks after application
# Method in brief: as §3
# [12] = test system: soybean; test: Test Example 5: effect on crop by foliage application, plastic box (symbol d); conditions: 320 g/ha, 3 weeks after application
# Method in brief: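 Seeds were sown in spots in sterilized diluvial soil held in a plastic box 21 cm × 13 cm × 7 cm deep, covered with about 1.5 cm of soil, and grown in a greenhouse at 25° C. to 30° C.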
Structure (SMILES),"Herbicidal effect grade, A: Echinochloa oryzacola Vasing. [1]","Herbicidal effect grade, B: Scirpus juncoides [2]","Herbicidal effect grade, C: Monochoria vaginalis [3]","Effect grade on crop, a: transplanted rice plant [4]","Herbicidal effect grade, B: Scirpus juncoides [5]","G: Setaria viridis, herbicidal effect grade [6]","J: Alopecurus myosuroides, herbicidal effect grade [7]","O: Chenopodium album, herbicidal effect grade [8]","f: beet, effect on crop grade [9]","H: Echinochloa crus-galli var. crus-galli, herbicidal effect grade [10]","J: Alopecurus myosuroides, herbicidal effect grade [11]","d: soybean, effect on crop grade [12]"
CCCC(=O)CC1CC(O)=C(c2c(C)cc(C)cc2C)C1=O (stereo not drawn) [2-021],4 (Herbicidal ratio of 70% or higher and lower than 90%),4 (Herbicidal ratio of 70% or higher and lower than 90%),2 (Herbicidal ratio of 20% or higher and lower than 40%),5 (Herbicidal ratio of 90% or more (almost completely withered)),2 (Herbicidal ratio of 20% or higher and lower than 40%),5 (Herbicidal ratio of 90% or more (almost completely withered)),5 (Herbicidal ratio of 90% or more (almost completely withered)),0 (Herbicidal ratio of 5% or lower (almost no effect)),0 (Herbicidal ratio of 5% or lower (almost no effect)),4 (Herbicidal ratio of 70% or higher and lower than 90%),5 (Herbicidal ratio of 90% or more (almost completely withered)),0 (Herbicidal ratio of 5% or lower (almost no effect))
Cc1cc(C)c(C2=C(O)CC(CC(=O)C(C)(C)C)C2=O)c(C)c1 (stereo not drawn) [2-022],1 (Herbicidal ratio of 5% or higher and lower than 20%),0 (Herbicidal ratio of 5% or lower (almost no effect)),0 (Herbicidal ratio of 5% or lower (almost no effect)),3 (Herbicidal ratio of 40% or higher and lower than 70%),0 (Herbicidal ratio of 5% or lower (almost no effect)),4 (Herbicidal ratio of 70% or higher and lower than 90%),0 (Herbicidal ratio of 5% or lower (almost no effect)),0 (Herbicidal ratio of 5% or lower (almost no effect)),0 (Herbicidal ratio of 5% or lower (almost no effect)),1 (Herbicidal ratio of 5% or higher and lower than 20%),3 (Herbicidal ratio of 40% or higher and lower than 70%),0 (Herbicidal ratio of 5% or lower (almost no effect))
CCC(C)C(=O)CC1CC(O)=C(c2c(C)cc(C)cc2C)C1=O (stereo not drawn) [2-024],2 (Herbicidal ratio of 20% or higher and lower than 40%),0 (Herbicidal ratio of 5% or lower (almost no effect)),0 (Herbicidal ratio of 5% or lower (almost no effect)),4 (Herbicidal ratio of 70% or higher and lower than 90%),0 (Herbicidal ratio of 5% or lower (almost no effect)),5 (Herbicidal ratio of 90% or more (almost completely withered)),0 (Herbicidal ratio of 5% or lower (almost no effect)),0 (Herbicidal ratio of 5% or lower (almost no effect)),0 (Herbicidal ratio of 5% or lower (almost no effect)),5 (Herbicidal ratio of 90% or more (almost completely withered)),4 (Herbicidal ratio of 70% or higher and lower than 90%),0 (Herbicidal ratio of 5% or lower (almost no effect))
Cc1cc(C)c(C2=C(O)CC(CC(=O)C3CCCC3)C2=O)c(C)c1 (stereo not drawn) [2-028],3 (Herbicidal ratio of 40% or higher and lower than 70%),0 (Herbicidal ratio of 5% or lower (almost no effect)),0 (Herbicidal ratio of 5% or lower (almost no effect)),3 (Herbicidal ratio of 40% or higher and lower than 70%),0 (Herbicidal ratio of 5% or lower (almost no effect)),5 (Herbicidal ratio of 90% or more (almost completely withered)),3 (Herbicidal ratio of 40% or higher and lower than 70%),0 (Herbicidal ratio of 5% or lower (almost no effect)),0 (Herbicidal ratio of 5% or lower (almost no effect)),5 (Herbicidal ratio of 90% or more (almost completely withered)),4 (Herbicidal ratio of 70% or higher and lower than 90%),0 (Herbicidal ratio of 5% or lower (almost no effect))
Cc1cc(C)c(C2=C(O)CC(CC(=O)C3CCCCC3)C2=O)c(C)c1 (stereo not drawn) [2-030],4 (Herbicidal ratio of 70% or higher and lower than 90%),0 (Herbicidal ratio of 5% or lower (almost no effect)),0 (Herbicidal ratio of 5% or lower (almost no effect)),3 (Herbicidal ratio of 40% or higher and lower than 70%),0 (Herbicidal ratio of 5% or lower (almost no effect)),5 (Herbicidal ratio of 90% or more (almost completely withered)),3 (Herbicidal ratio of 40% or higher and lower than 70%),0 (Herbicidal ratio of 5% or lower (almost no effect)),0 (Herbicidal ratio of 5% or lower (almost no effect)),4 (Herbicidal ratio of 70% or higher and lower than 90%),3 (Herbicidal ratio of 40% or higher and lower than 70%),0 (Herbicidal ratio of 5% or lower (almost no effect))
C=CC(=O)CC1CC(O)=C(c2c(C)cc(C)cc2C)C1=O (stereo not drawn) [2-031],4 (Herbicidal ratio of 70% or higher and lower than 90%),4 (Herbicidal ratio of 70% or higher and lower than 90%),2 (Herbicidal ratio of 20% or higher and lower than 40%),5 (Herbicidal ratio of 90% or more (almost completely withered)),0 (Herbicidal ratio of 5% or lower (almost no effect)),5 (Herbicidal ratio of 90% or more (almost completely withered)),3 (Herbicidal ratio of 40% or higher and lower than 70%),0 (Herbicidal ratio of 5% or lower (almost no effect)),0 (Herbicidal ratio of 5% or lower (almost no effect)),5 (Herbicidal ratio of 90% or more (almost completely withered)),5 (Herbicidal ratio of 90% or more (almost completely withered)),0 (Herbicidal ratio of 5% or lower (almost no effect))
Cc1cc(C)c(C2=C(O)CC(CC(=O)c3ccc(F)cc3)C2=O)c(C)c1 (stereo not drawn) [2-032],4 (Herbicidal ratio of 70% or higher and lower than 90%),4 (Herbicidal ratio of 70% or higher and lower than 90%),1 (Herbicidal ratio of 5% or higher and lower than 20%),5 (Herbicidal ratio of 90% or more (almost completely withered)),1 (Herbicidal ratio of 5% or higher and lower than 20%),5 (Herbicidal ratio of 90% or more (almost completely withered)),5 (Herbicidal ratio of 90% or more (almost completely withered)),0 (Herbicidal ratio of 5% or lower (almost no effect)),0 (Herbicidal ratio of 5% or lower (almost no effect)),5 (Herbicidal ratio of 90% or more (almost completely withered)),4 (Herbicidal ratio of 70% or higher and lower than 90%),0 (Herbicidal ratio of 5% or lower (almost no effect))
